The text below walks through data of patent US10912741B2, “Prevention of liver cancer with safranal-based formulations” (United Arab Emirates University, priority 2019, dated 2021).

Assay [1] deals with superoxide dismutase (SOD). The experiment in a line: Superoxide dismutase in liver homogenate, DEN/2-AAF hepatocarcinogenesis model. The assay is classed as in vivo, albino Wistar rats. As to conditions: mean±SEM, 8 rats. Here is the method: The experimental hepatocarcinogenesis model was developed according to a protocol by […] et al. that was adapted for our purposes. To initiate and promote hepatocarcinogenesis, diethylnitrosamine (DEN) and 2-acetylaminofluorene (2-AAF) were used, respectively. For hepatocarcinogenesis initiation in this model, a single DEN dose (200 mg/kg b.wt.) dissolved in saline was injected intraperitoneally. After initiation, all rats underwent one period of 5-days fasting, as mitotic proliferative stimuli. To promote hepatocarcinogenesis, 2-acetylaminofluorene (2-AAF) was introduced in the form of six daily intragastric doses (30 mg/kg in 1% Tween 80); two weeks after DEN treatment. […] at doses of 25 mg/kg by weight (b.wt.) and 50 mg/kg b.wt, was administrated orally to rats. These doses have been reported to suppress chemically-induced oxidative damage in rats. A total of 40 adult male albino Wistar rats were randomly divided into […] (n=8) and were subjected to different treatments. Group 1 (control) was orally administered distilled water (5 ml/kg b.wt.) throughout the experimental duration and were injected with a single dose of saline. Group 2 ([…] only) was subjected to a safranal dose (50 mg/kg b.wt.) through oral administration for the duration of the experimental period. Hepatocarcinogenesis was induced by DEN and promoted by 2-AAF, as reported previously, in group 3 (HCC). […] Glutathione (GSH) content was determined by analyzing liver homogenates, according to the method of Van Dooran et al. The assay depends on measuring yellow 5-thiol-2-nitrobenzoate absorbance at 412 nm. Glutathione-S-transferase (GST) activity was determined using the method of Habig et al. GST catalyzes the conjugation of GSH thiol group with 1-Chloro-2,4-dinitrobenzene (CDNB), which can be measured by determining the increase in absorbance at 340 nm. […] CAT decomposes hydrogen peroxide (H2O2) to oxygen and water; therefore, the activity of CAT was evaluated according to by the exponential decomposition of H2O2 at 240 nm. […] UV-160-Shimadzu recording spectrophotometer was used to record absorbances. […]

The test system of assay [2] is alveolar human lung cancer A549. As to conditions: A549 cell line, reported in the background; cited from earlier work.
A further assay deals with HeLa cells. As to conditions: reported in the background; cited from earlier work.

Structures are written as SMILES.

For `CC1=C(C=O)C(C)(C)CC=C1` [Safranal, 2,6,6-trimethylcyclohexa-1,3-diene-1-carbaldehyde], the SOD in assay [1] (HCC (DEN/2-AAF) rats + safranal high dose 50 mg/kg b.wt. oral, 12 weeks) is recorded as 3.96 ± 0.13 unit/mg protein; in assay [1] (HCC (DEN/2-AAF) rats + safranal low dose 25 mg/kg b.wt. oral, 12 weeks), 4.02 ± 0.18 unit/mg protein; in assay [1] (safranal alone 50 mg/kg b.wt. oral, no DEN (group 2)), 4.05 ± 0.09 unit/mg protein. Besides, the apoptosis entry in assay [2] was “induce apoptosis”. Also, the “growth of HeLa cells” value in the assay on HeLa cells is reported as “inhibit the growth of HeLa cells”.
